Experimental findings from BindingDB's records for doi:10.1002/prot.21207 (The Procter & Gamble Pharmaceuticals, 2007) are described below.

One may read the IC50 as the concentration that gives 50% inhibition. A higher IC50 goes with a need for much substance.

SMILES strings stand for the structures.

The target in the test is T1, Methionine aminopeptidase (Escherichia coli (strain K12), UniProt P0AE18).
T1 sequence (P0AE18 whole entry): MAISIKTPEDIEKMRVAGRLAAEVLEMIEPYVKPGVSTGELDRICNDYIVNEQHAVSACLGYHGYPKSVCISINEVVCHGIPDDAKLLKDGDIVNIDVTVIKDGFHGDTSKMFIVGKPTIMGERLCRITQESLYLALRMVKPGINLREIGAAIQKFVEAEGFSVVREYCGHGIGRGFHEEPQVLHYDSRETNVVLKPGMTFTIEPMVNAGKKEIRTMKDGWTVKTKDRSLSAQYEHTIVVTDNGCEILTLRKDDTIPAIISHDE
The experiment in a line: EcMAP Enzyme Inhibition Assay. The conditions noted are these: pH 7.5; 30 °C. The procedure: The inhibitory activity of a compound toward EcMAP was measured by incubating the compound at various concentrations in the presence of the enzyme and the peptide substrate MGMM. Activity can be determined based on the amount of GMM produced or the amount of MGMM consumed. The integrated area of the tripeptide or tetrapeptide peak was compared to a calibration curve generated by running HPLC chromatograms of known concentrations of the polypeptides.
Turning to `N=c1nnc(=N)c1=NNc1cccc(C(=O)O)c1O` [3-[(E)-2-(5-amino-3-imino-3H-pyrazol-4-yl)diazen-1-yl]-2-hydroxybenzoic acid], the IC50 is 2000 nM. This counts as single-digit micromolar.

Regarding `COc1ccc(NN=c2c(=N)nnc2=N)cc1` [3-imino-4-[(E)-2-(4-methoxyphenyl)diazen-1-yl]-3H-pyrazol-5-amine], the IC50 was 1500 nM.

`N=c1nnc(=N)c1=NNc1cccc(F)c1` [4-[(E)-2-(3-fluorophenyl)diazen-1-yl]-3-imino-3H-pyrazol-5-amine] registered a half-inhibitory concentration (IC50) of 550 nM.

As to `N=c1nnc(=N)c1=NNc1ccc(Cl)cc1` [4-[(E)-2-(4-chlorophenyl)diazen-1-yl]-3-imino-3H-pyrazol-5-amine], the concentration for half-maximal inhibition (IC50) turned out to be 1250 nM.

In turn, `Cc1c(Cl)cccc1NN=c1c(=N)nnc1=N` [4-[(E)-2-(3-chloro-2-methylphenyl)diazen-1-yl]-3-imino-3H-pyrazol-5-amine] displayed an IC50 of 550 nM.
